Data from publication PMC9181188 (International Journal of Molecular Sciences, 2022).
In brackets after ≈: the same amount, converted by molar mass. Read-outs that look alike come from different tables or passages of the source.

Legend:
[1] = system: S. epidermidis T 5253 845/19; experiment: MIC, clinical S. epidermidis strain; type: cell-based; details: Staphylococcus epidermidis, T5253845/19, quinolone-resistant, 18 h of treatment
[2] = system: S. epidermidis KR 4243 829/19; experiment: MIC, clinical S. epidermidis strain; type: cell-based; details: Staphylococcus epidermidis, KR4243829/19, quinolone-susceptible, 18 h of treatment
[3] = system: S. epidermidis KR 4313 834/19; experiment: MIC, clinical S. epidermidis strain; type: cell-based; details: Staphylococcus epidermidis, KR4313834/19, quinolone-susceptible, 18 h of treatment
[4] = system: M. tuberculosis strains; experiment: MABA MIC, mycobacterial strains as a group; type: cell-based; details: Mycobacterium tuberculosis; summary over strains; read-out: MIC antimycobacterial (strain not specified)
[5] = system: SW620 cells; experiment: MTT assay, SW620; type: cell-based, human; details: for IC50: Homo sapiens, SW-620, 72 h, human metastatic colon cancer, 72 h, MTT, mean ± SD; for SI SW620: SI = IC50 for normal cell line (HaCaT)/IC50 cancer cell line
[6] = system: S. epidermidis KR 4358/2 840/19; experiment: MIC, clinical S. epidermidis strain; type: cell-based; details: Staphylococcus epidermidis, read-out: MIC KR 4358/2 840/19
[7] = system: S. epidermidis KR 4047 825/19; experiment: MIC, clinical S. epidermidis strain; type: cell-based; details: Staphylococcus epidermidis, KR4047825/19, quinolone-resistant, 18 h of treatment
[8] = system: M. tuberculosis Spec. 192 (Sensitive to Tuberculostatics); experiment: MABA (microplate Alamar blue assay) MIC; type: cell-based; details: Mycobacterium tuberculosis, 336 h, read-out: MIC M. tuberculosis Spec. 192 (Sensitive to Tuberculostatics)
[9] = system: S. aureus ATCC 6538; experiment: MIC, twofold microdilution, standard strain; type: cell-based; details: Staphylococcus aureus, ATCC6538; 18 h of treatment; read-out: MIC S. aureus ATCC 6538
[10] = system: S. epidermidis ATCC 12228; experiment: MIC, twofold microdilution, standard strain; type: cell-based; details: Staphylococcus epidermidis, read-out: MIC S. epidermidis ATCC 12228
[11] = system: P. aeruginosa ATCC 27853; experiment: MIC, twofold microdilution, standard strain; type: cell-based; details: Pseudomonas aeruginosa, ATCC27853; 18 h of treatment; read-out: MIC P. aeruginosa ATCC 27853
[12] = system: E. coli ATCC 25922; experiment: MIC, twofold microdilution, standard strain; type: cell-based, Escherichia coli; details: Escherichia coli, read-out: MIC E. coli ATCC 25922
[13] = system: SW480 cells; experiment: MTT assay, SW480; type: cell-based, human; details: for IC50: human primary colon cancer, 72 h, MTT, mean ± SD; for SI SW480: SI = IC50 for normal cell line (HaCaT)/IC50 cancer cell line
[14] = system: standard staphylococci (S. aureus, S. epidermidis); experiment: MIC, standard Gram-positive strains as a group; type: cell-based; details: Staphylococcus aureus; range over standard Gram-positive strains; read-out: MIC against standard staphylococci
[15] = system: S. aureus ATCC 29213; experiment: MIC, twofold microdilution, standard strain; type: cell-based; details: Staphylococcus aureus, ATCC29213; 18 h of treatment; read-out: MIC S. aureus ATCC 29213
[16] = system: M. tuberculosis H37Rv; experiment: MABA (microplate Alamar blue assay) MIC; type: cell-based; details: Mycobacterium tuberculosis, 336 h, read-out: MIC M. tuberculosis H37Rv
[17] = system: PC3 cells; experiment: MTT assay, PC3; type: cell-based, human; details: for IC50: human metastatic prostate cancer, 72 h, MTT, mean ± SD; for SI PC3: SI = IC50 for normal cell line (HaCaT)/IC50 cancer cell line
[18] = system: S. aureus ATCC 25923; experiment: MIC, twofold microdilution, standard strain; type: cell-based; details: Staphylococcus aureus, ATCC25923; 18 h of treatment; read-out: MIC S. aureus ATCC 25923
[19] = system: S. epidermidis T 5501 851/19; experiment: MIC, clinical S. epidermidis strain; type: cell-based; details: Staphylococcus epidermidis, T5501851/19, read-out: MIC T 5501 851/19, quinolone-susceptible, 18 h of treatment
[20] = system: S. epidermidis ATCC 35984; experiment: MIC, twofold microdilution, standard strain; type: cell-based; details: Staphylococcus epidermidis, ATCC35984; 18 h of treatment; read-out: MIC S. epidermidis ATCC 35984
[21] = system: S. epidermidis T 5399 848/19; experiment: MIC, clinical S. epidermidis strain; type: cell-based; details: Staphylococcus epidermidis, T5399848/19, quinolone-susceptible, 18 h of treatment
[22] = system: S. aureus NCTC 4163; experiment: MIC, twofold microdilution, standard strain; type: cell-based; details: Staphylococcus aureus, NCTC4163; 18 h of treatment; read-out: MIC S. aureus NCTC 4163
[23] = system: HaCaT cells; experiment: MTT assay, HaCaT normal cells; type: cell-based; details: human immortal keratinocyte cell line, 72 h, mean ± SD
[24] = system: SW480, SW620, and PC3 cancer cell lines; experiment: MTT assay, cancer cell lines as a group; type: cell-based, human; details: Homo sapiens, 72 h, all three cancer cell lines (SW480, SW620, PC3), read-out: IC50 against all tested cancer cell lines
[25] = KR4358/2840/19, clinical S. epidermidis, quinolone-susceptible, 18 h of treatment

| SMILES | MIC [1] | MIC [2] | MIC [3] | IC50 [5] | SI SW620 [5] | MIC [6, 25] | MIC [7] | MIC [9] | MIC [11] | IC50 ([13]; Homo sapiens, SW480, 72 h) | SI SW480 [13] | MIC [14] | MIC [15] | SI PC3 [17] | MIC [18] | MIC [19] | MIC [20] | MIC [21] | MIC [22] | IC50 [23] | further results |
| --- | --- | --- | --- | --- | --- | --- | --- | --- | --- | --- | --- | --- | --- | --- | --- | --- | --- | --- | --- | --- | --- |
| CCCCC/C=C\C/C=C\CCCCCCCC(=O)N1CCCC2CN(c3c(F)cc4c(=O)c(C(=O)O)cn(C5CC5)c4c3OC)CC21 (centres unmarked) [Compound 11m, 1-Cyclopropyl-6-fluoro-8-methoxy-7-{1-(9Z,12Z)-octadeca-9,12-dienoyl-octahydropyrrolo-[3,4-b]pyridin-6-yl)-4-oxo-1,4-dihydro-quinoline-3-carboxylic acid] | 512 µg/mL (≈ 771 µM) | 256 µg/mL (≈ 386 µM) | 64 µg/mL (≈ 96.4 µM) | 7.3 ± 0.9 µM | 12.5 | 128 µg/mL (≈ 193 µM) | 512 µg/mL (≈ 771 µM) | > 512 µg/mL | > 512 µg/mL | < 5 µM | 19.0 | > 32 µg/mL | > 512 µg/mL | 25.4 | > 512 µg/mL | 512 µg/mL (≈ 771 µM) | > 512 µg/mL | 512 µg/mL (≈ 771 µM) | > 512 µg/mL | 91.4 ± 5.3 µM | MIC [4]: ≥ 128 µg/mL; MIC ([8]; 2 weeks of treatment): 128 µg/mL (≈ 193 µM); MIC ([10]; ATCC12228, 18 h of treatment): > 512 µg/mL; MIC ([12]; ATCC25922, 18 h of treatment): > 512 µg/mL; IC50 [13]: 4.8 ± 1.3 µM; MIC ([16]; 2 weeks of treatment): 512 µg/mL (≈ 771 µM); IC50 ([17]; Homo sapiens, PC-3, 72 h): < 5 µM; IC50 [17]: 3.6 ± 1.1 µM |
| CCCCCCCC/C=C\CCCCCCCC(=O)N1CCCC2CN(c3c(F)cc4c(=O)c(C(=O)O)cn(C5CC5)c4c3OC)CC21 (centres unmarked) [Compound 4m, 1-Cyclopropyl-6-fluoro-8-methoxy-7-{1-(Z)-octadec-9-enoyl-octahydro-pyrrolo[3,4-b]pyridin-6-yl}-4-oxo-1,4-dihydro-quinoline-3-carboxylic acid] | > 512 µg/mL | > 512 µg/mL | > 512 µg/mL | 3.4 ± 0.7 µM | 27.1 | – | > 512 µg/mL | 128 µg/mL (≈ 192 µM) | 128 µg/mL (≈ 192 µM) | 4.6 ± 1.4 µM | 20.1 | > 32 µg/mL | 512 µg/mL (≈ 769 µM) | 71.0 | 256 µg/mL (≈ 384 µM) | > 512 µg/mL | 256 µg/mL (≈ 384 µM) | > 512 µg/mL | 128 µg/mL (≈ 192 µM) | 92.3 ± 6.1 µM | MIC ([6]; KR4358/2840/19, 18 h): > 512 µg/mL; MIC [8]: > 512 µg/mL; MIC ([10]; ATCC12228, 18 h): > 512 µg/mL; MIC ([12]; ATCC25922, 18 h of treatment): 512 µg/mL (≈ 769 µM); IC50 [24]: < 5 µM; MIC [16]: > 512 µg/mL |
| CCCCC/C=C\C/C=C\C/C=C\CCCCC(=O)N1CCCC2CN(c3c(F)cc4c(=O)c(C(=O)O)cn(C5CC5)c4c3OC)CC21 (centres unmarked) [Compound 12m, 1-Cyclopropyl-6-fluoro-8-methoxy-7-{1-(6Z,9Z,12Z)-octadeca-6,9,12-trienoyl-octahydro-pyrrolo[3,4-b]pyridin-6-yl}-4-oxo-1,4-dihydro-quinoline-3-carboxylic acid] | 512 µg/mL (≈ 774 µM) | 32 µg/mL (≈ 48.3 µM) | 256 µg/mL (≈ 387 µM) | 18.3 ± 3.2 µM | 4.8 | 512 µg/mL (≈ 774 µM) | 256 µg/mL (≈ 387 µM) | 64 µg/mL (≈ 96.7 µM) | > 512 µg/mL | 16.8 ± 2.3 µM | 5.3 | > 32 µg/mL | 64 µg/mL (≈ 96.7 µM) | 6.0 | 64 µg/mL (≈ 96.7 µM) | 32 µg/mL (≈ 48.3 µM) | 32 µg/mL (≈ 48.3 µM) | 32 µg/mL (≈ 48.3 µM) | 64 µg/mL (≈ 96.7 µM) | 88.7 ± 3.3 µM | MIC [4]: 64 µg/mL (≈ 96.7 µM); MIC ([8]; 2 weeks of treatment): 64 µg/mL (≈ 96.7 µM); MIC ([10]; ATCC12228, 18 h of treatment): 64 µg/mL (≈ 96.7 µM); MIC ([12]; ATCC25922, 18 h of treatment): 128 µg/mL (≈ 193 µM); MIC ([16]; 2 weeks of treatment): 64 µg/mL (≈ 96.7 µM); IC50 ([17]; Homo sapiens, PC-3, 72 h): 14.7 ± 2.3 µM |
| CCCCCCCC/C=C/CCCCCCCC(=O)N1CCCC2CN(c3c(F)cc4c(=O)c(C(=O)O)cn(C5CC5)c4c3OC)CC21 (centres unmarked) [Compound 5m, 1-Cyclopropyl-6-fluoro-8-methoxy-7-{1-(E)-octadec-9-enoyl-octahydro-pyrrolo[3,4-b]pyridin-6-yl}-4-oxo-1,4-dihydro-quinoline-3-carboxylic acid] | 512 µg/mL (≈ 769 µM) | > 512 µg/mL | 256 µg/mL (≈ 384 µM) | 8.7 ± 1.2 µM | 10.5 | 512 µg/mL (≈ 769 µM) | > 512 µg/mL | > 512 µg/mL | 128 µg/mL (≈ 192 µM) | 6.7 ± 0.6 µM | 13.7 | > 32 µg/mL | > 512 µg/mL | 17.3 | > 512 µg/mL | 512 µg/mL (≈ 769 µM) | > 512 µg/mL | 512 µg/mL (≈ 769 µM) | > 512 µg/mL | 91.6 ± 4.6 µM | MIC [8]: 256 µg/mL (≈ 384 µM); MIC ([10]; ATCC12228, 18 h of treatment): > 512 µg/mL; MIC ([12]; ATCC25922, 18 h of treatment): > 512 µg/mL; IC50 [24]: 5 to 10 µM; MIC ([16]; 2 weeks of treatment): 512 µg/mL (≈ 769 µM); IC50 ([17]; Homo sapiens, PC-3, 72 h): 5.3 ± 1.3 µM |
| CC/C=C\C/C=C\C/C=C\CCCCCCCC(=O)N1CCCC2CN(c3c(F)cc4c(=O)c(C(=O)O)cn(C5CC5)c4c3OC)CC21 (centres unmarked) [Compound 6m, 1-Cyclopropyl-6-fluoro-8-methoxy-7-{1-(9Z,12Z,15Z)-octadeca-9,12,15-trienoyl-octahydro-pyrrolo[3,4-b]pyridin-6-yl}-4-oxo-1,4-dihydro-quinoline-3-carboxylic acid] | 256 µg/mL (≈ 387 µM) | 64 µg/mL (≈ 96.7 µM) | 64 µg/mL (≈ 96.7 µM) | 15.6 ± 2.6 µM | 6.2 | 64 µg/mL (≈ 96.7 µM) | 256 µg/mL (≈ 387 µM) | 16 µg/mL (≈ 24.2 µM) | > 512 µg/mL | 16.7 ± 3.1 µM | 5.8 | 8 to 32 µg/mL (≈ 12.1 to 48.3 µM) | 16 µg/mL (≈ 24.2 µM) | 6.7 | 32 µg/mL (≈ 48.3 µM) | 128 µg/mL (≈ 193 µM) | 32 µg/mL (≈ 48.3 µM) | 32 µg/mL (≈ 48.3 µM) | 16 µg/mL (≈ 24.2 µM) | 96.6 ± 5.5 µM | MIC [4]: ≥ 128 µg/mL; MIC ([8]; 2 weeks of treatment): 128 µg/mL (≈ 193 µM); MIC ([10]; ATCC12228, 18 h of treatment): 32 µg/mL (≈ 48.3 µM); MIC ([12]; ATCC25922, 18 h): 256 µg/mL (≈ 387 µM); MIC [16]: 256 µg/mL (≈ 387 µM); IC50 ([17]; Homo sapiens, PC-3, 72 h): 14.4 ± 2.4 µM |
